Legend:
BRM = BRM (Homo sapiens, UniProt P51531); experiment: Immunofluorescence assay for BRM degradation in SW1573 cells; format: cell-based; set-up: treated overnight at 4° C. with either BRM primary antibody (Cell signaling Cat #11966) or BRG primary antibody; endogenous in cells; host or cells: SW1573; conditions: 20 hours incubation; for DC50: immunofluorescence mean nuclear signal, read-out: BRM IF Degradation IC50; for BRM IF Degradation Sinf (%): normalized to a known degrader control
How it was run: (§1)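 Cells seeded one day before dosing, exposed to compounds for 20 hours, then fixed, permeabilized, blocked and stained overnight at 4 °C with anti-BRM or anti-BRG1 antibody. Nuclear fluorescence intensity per cell, normalized to a degrader control, gave concentration-response curves fitted with a floating maximum.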

BRG1 = biological target: T1, BRG1 (Homo sapiens, UniProt P51532); experiment: Immunofluorescence assay for BRG1 degradation in SW1573 cells; format: cell-based; conditions: 20 hours incubation; for DC50: immunofluorescence mean nuclear signal, read-out: BRG1 IF Degradation IC50; for Dmax: SW1573, 20 h, normalized to a known degrader control, read-out: BRG1 IF Degradation Sinf (%)
T1 construct: either BRM primary antibody (Cell signaling Cat #11966) or BRG primary antibody (Abcam, ab 110641); endogenous in cells; host or cells: SW1573
How it was run: as §1

Chain of BRM (P51531 whole entry): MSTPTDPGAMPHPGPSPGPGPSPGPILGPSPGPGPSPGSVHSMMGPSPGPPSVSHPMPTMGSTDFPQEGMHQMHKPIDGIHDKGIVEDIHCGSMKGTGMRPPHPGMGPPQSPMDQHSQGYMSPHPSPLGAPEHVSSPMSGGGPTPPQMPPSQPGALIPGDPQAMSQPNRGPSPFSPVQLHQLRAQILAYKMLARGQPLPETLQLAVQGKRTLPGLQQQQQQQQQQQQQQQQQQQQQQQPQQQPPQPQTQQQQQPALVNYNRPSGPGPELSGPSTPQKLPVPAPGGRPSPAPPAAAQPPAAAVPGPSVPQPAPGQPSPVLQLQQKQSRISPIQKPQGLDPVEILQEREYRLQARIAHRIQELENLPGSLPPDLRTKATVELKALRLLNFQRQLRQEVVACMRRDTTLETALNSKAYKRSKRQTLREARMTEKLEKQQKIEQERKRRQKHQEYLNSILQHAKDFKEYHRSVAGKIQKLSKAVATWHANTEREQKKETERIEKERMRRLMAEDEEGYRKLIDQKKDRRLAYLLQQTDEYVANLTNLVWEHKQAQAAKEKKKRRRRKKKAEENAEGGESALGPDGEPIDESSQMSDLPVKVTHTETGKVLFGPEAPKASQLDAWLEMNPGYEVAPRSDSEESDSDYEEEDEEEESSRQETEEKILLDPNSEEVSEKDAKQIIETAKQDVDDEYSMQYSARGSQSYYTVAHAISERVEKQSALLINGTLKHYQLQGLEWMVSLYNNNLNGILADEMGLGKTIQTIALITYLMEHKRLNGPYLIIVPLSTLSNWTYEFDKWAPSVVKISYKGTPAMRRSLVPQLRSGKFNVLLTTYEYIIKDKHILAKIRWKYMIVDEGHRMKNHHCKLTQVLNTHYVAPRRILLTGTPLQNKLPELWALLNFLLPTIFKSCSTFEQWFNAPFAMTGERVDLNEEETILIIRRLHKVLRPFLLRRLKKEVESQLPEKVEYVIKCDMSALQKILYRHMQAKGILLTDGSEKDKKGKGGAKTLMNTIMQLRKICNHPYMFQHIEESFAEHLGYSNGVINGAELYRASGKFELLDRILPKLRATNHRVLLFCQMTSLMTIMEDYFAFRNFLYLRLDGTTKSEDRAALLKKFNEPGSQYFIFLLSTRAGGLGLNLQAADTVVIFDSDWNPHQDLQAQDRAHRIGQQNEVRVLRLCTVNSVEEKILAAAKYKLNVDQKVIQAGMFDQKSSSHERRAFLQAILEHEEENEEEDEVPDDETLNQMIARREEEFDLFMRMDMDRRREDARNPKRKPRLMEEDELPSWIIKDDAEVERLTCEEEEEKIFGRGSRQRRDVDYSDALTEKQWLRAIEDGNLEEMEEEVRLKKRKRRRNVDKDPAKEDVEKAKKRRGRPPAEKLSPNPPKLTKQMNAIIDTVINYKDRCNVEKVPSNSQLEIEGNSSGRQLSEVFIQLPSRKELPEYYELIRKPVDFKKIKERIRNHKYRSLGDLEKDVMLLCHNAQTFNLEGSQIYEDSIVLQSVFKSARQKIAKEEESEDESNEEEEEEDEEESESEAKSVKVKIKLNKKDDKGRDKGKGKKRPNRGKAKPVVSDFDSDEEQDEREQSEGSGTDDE
T1 sequence (P51532 whole entry): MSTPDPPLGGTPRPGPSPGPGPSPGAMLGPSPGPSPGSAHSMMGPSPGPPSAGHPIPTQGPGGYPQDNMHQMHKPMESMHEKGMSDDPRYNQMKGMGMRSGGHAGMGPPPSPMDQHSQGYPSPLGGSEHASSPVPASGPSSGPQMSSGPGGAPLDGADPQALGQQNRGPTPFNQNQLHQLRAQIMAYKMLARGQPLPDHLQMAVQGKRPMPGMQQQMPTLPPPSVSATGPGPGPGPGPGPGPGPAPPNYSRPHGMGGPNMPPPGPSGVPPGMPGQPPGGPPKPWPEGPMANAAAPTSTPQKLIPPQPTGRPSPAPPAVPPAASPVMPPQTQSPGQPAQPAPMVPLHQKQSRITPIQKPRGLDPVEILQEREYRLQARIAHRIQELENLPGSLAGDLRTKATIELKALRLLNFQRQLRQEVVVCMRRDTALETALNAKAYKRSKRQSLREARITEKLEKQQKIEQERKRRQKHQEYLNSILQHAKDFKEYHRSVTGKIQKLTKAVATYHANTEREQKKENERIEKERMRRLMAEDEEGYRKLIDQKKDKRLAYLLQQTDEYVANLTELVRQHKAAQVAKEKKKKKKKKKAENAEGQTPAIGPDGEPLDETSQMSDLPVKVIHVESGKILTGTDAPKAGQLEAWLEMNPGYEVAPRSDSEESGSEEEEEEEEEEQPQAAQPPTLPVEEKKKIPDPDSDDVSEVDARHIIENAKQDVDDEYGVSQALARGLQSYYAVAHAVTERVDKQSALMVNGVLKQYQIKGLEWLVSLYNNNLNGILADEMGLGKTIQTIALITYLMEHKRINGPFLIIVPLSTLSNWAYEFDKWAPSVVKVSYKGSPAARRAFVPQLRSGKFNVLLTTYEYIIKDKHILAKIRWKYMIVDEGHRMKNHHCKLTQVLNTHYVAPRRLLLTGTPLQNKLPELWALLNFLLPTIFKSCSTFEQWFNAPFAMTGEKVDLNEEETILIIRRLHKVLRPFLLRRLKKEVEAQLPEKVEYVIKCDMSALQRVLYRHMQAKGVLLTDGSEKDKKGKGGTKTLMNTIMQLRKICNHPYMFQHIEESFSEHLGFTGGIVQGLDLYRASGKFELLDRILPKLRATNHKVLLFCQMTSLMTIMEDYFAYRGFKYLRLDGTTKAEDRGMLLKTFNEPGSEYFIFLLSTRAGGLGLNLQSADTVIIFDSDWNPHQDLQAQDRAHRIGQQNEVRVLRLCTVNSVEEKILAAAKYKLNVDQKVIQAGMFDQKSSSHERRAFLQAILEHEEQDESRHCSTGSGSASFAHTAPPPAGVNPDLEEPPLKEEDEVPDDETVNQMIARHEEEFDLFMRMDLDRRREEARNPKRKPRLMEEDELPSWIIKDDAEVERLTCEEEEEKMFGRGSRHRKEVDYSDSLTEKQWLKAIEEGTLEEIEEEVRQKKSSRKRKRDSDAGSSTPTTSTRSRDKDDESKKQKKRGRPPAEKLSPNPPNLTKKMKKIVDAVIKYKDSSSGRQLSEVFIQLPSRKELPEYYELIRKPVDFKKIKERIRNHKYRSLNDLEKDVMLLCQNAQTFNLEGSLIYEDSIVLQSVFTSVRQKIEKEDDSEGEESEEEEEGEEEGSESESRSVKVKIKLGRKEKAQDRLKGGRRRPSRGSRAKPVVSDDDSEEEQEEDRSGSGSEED

Structure (SMILES)	DC50 (BRM) [nM]	BRM IF Degradation Sinf (%) (BRM)	DC50 (BRG1) [nM]	Dmax (BRG1) [%]
CC1CN(CC#Cc2cc(N3C4CCC3CN(c3cc(-c5ccccc5O)nnc3N)C4)ccn2)CCCC1O (centres unmarked) [Compound 196, 1-[3-[4-[3-[3-amino-6-(2-hydroxyphenyl)pyridazin-4-yl]-3,8-diazabicyclo[3.2.1]octan-8-yl]-2-pyridyl]prop-2-ynyl]-3-methyl-azepan-4-ol]	< 10	F (F indicates −71%-−120%)	< 10	71 to 120
CC1(CO)CCCN(CC#Cc2cc(N3C4CCC3CN(c3cc(-c5ccccc5O)nnc3N)C4)ccn2)CC1 (centres unmarked) [Compound 197, 2-[6-amino-5-[8-[2-[3-[4-(hydroxymethyl)-4-methyl-azepan-1-yl]prop-1-ynyl]-4-pyridyl]-3,8-diazabicyclo[3.2.1]octan-3-yl]pyridazin-3-yl]phenol]	< 10	F (F indicates −71%-−120%)	< 10	30 to 70
Nc1nnc(-c2ccccc2O)cc1N1CC2CCC(C1)N2c1ccnc(C#CCN2CCCC(F)(F)C(F)C2)c1 (centres unmarked) [Compound 199, 2-[6-amino-5-[8-[2-[3-(3,4,4-trifluoroazepan-1-yl)prop-1-ynyl]-4-pyridyl]-3,8-diazabicyclo[3.2.1]octan-3-yl]pyridazin-3-yl]phenol]	< 10	F (F indicates −71%-−120%)	10 to 100	30 to 70
CC1CCCN(CC#Cc2cc(N3C4CCC3CN(c3cc(-c5ccccc5O)nnc3N)C4)ccn2)CC1 (centres unmarked) [Compound 200, 2-[6-amino-5-[8-[2-[3-(4-methylazepan-1-yl)prop-1-ynyl]-4-pyridyl]-3,8-diazabicyclo[3.2.1]octan-3-yl]pyridazin-3-yl]phenol]	< 10	F (F indicates −71%-−120%)	< 10	71 to 120
CC1CCCCCN1CC#Cc1cc(N2C3CCC2CN(c2cc(-c4ccccc4O)nnc2N)C3)ccn1 (centres unmarked) [Compound 201, 2-[6-amino-5-[8-[2-[3-(2-methylazepan-1-yl)prop-1-ynyl]-4-pyridyl]-3,8-diazabicyclo[3.2.1]octan-3-yl]pyridazin-3-yl]phenol]	< 10	F (F indicates −71%-−120%)	< 10	30 to 70
Nc1nnc(-c2ccccc2O)cc1N1CC2CCC(C1)N2c1ccnc(C#CCN2CCc3ccccc3CC2)c1 [Compound 202, 2-[6-amino-5-[8-[2-[3-(1,2,4,5-tetrahydro-3-benzazepin-3-yl)prop-1-ynyl]-4-pyridyl]-3,8-diazabicyclo[3.2.1]octan-3-yl]pyridazin-3-yl]phenol]	10 to 100	E (E indicates −30%-−70%)	10 to 100	30 to 70
Nc1nnc(-c2ccccc2O)cc1N1CC2CCC(C1)N2c1ccnc(C#CCN2CCc3nccn3CC2)c1 [Compound 203, 2-[6-amino-5-[8-[2-[3-(5,6,8,9-tetrahydroimidazo[l,2-d][1,4]diazepin-7-yl)prop-1-ynyl]-4-pyridyl]-3,8-diazabicyclo[3.2.1]octan-3-yl]pyridazin-3-yl]phenol]	10 to 100	E (E indicates −30%-−70%)	> 100	–
CC1(C)CCCN(CC#Cc2cc(N3C4CCC3CN(c3cc(-c5ccccc5O)nnc3N)C4)ccn2)CC1 [Compound 205, 2-[6-amino-5-[8-[2-[3-(4,4-dimethylazepan-1-yl)prop-1-ynyl]-4-pyridyl]-3,8-diazabicyclo[3.2.1]octan-3-yl]pyridazin-3-yl]phenol]	< 10	F (F indicates −71%-−120%)	< 10	30 to 70
N#CCC1CCN(CC#Cc2cc(N3C4CCC3CN(c3cc(-c5ccccc5O)nnc3N)C4)ccn2)CCC1(F)F (centres unmarked) [Compound 206, 2-[1-[3-[4-[3-[3-amino-6-(2-hydroxyphenyl)pyridazin-4-yl]-3,8-diazabicyclo[3.2.1]octan-8-yl]-2-pyridyl]prop-2-ynyl]-5,5-difluoro-azepan-4-yl]acetonitrile]	10 to 100	E (E indicates −30%-−70%)	> 100	–
COCC1(O)CCCN(CC#Cc2cc(N3C4CCC3CN(c3cc(-c5ccccc5O)nnc3N)C4)ccn2)CC1 (centres unmarked) [Compound 207, 1-[3-[4-[3-[3-amino-6-(2-hydroxyphenyl)pyridazin-4-yl]-3,8-diazabicyclo[3.2.1]octan-8-yl]-2-pyridyl]prop-2-ynyl]-4-(methoxymethyl)azepan-4-ol]	10 to 100	E (E indicates −30%-−70%)	> 100	71 to 120
Nc1nnc(-c2ccccc2O)cc1N1CC2CCC(C1)N2c1ccnc(C#CCN2CCCC3(CC2)CC3(F)F)c1 (centres unmarked) [Compound 208, 2-[6-amino-5-[8-[2-[3-(2,2-difluoro-7-azaspiro[2.6]nonan-7-yl)prop-1-ynyl]-4-pyridyl]-3,8-diazabicyclo[3.2.1]octan-3-yl]pyridazin-3-yl]phenol]	< 10	E (E indicates −30%-−70%)	< 10	30 to 70
Nc1nnc(-c2ccccc2O)cc1N1CC2CCC(C1)N2c1ccnc(C#CCN2CCCC(C(F)(F)F)CC2)c1 (centres unmarked) [Compound 209, 2-[6-amino-5-[8-[2-[3-[4-(trifluoromethyl)azepan-1-yl]prop-1-ynyl]-4-pyridyl]-3,8-diazabicyclo[3.2.1]octan-3-yl]pyridazin-3-yl]phenol]	< 10	F (F indicates −71%-−120%)	< 10	30 to 70
CC1(C)CC(O)C(O)CN(CC#Cc2cc(N3C4CCC3CN(c3cc(-c5ccccc5O)nnc3N)C4)ccn2)C1 (centres unmarked) [Compound 210, 1-[3-[4-[3-[3-amino-6-(2-hydroxyphenyl)pyridazin-4-yl]-3,8-diazabicyclo[3.2.1]octan-8-yl]-2-pyridyl]prop-2-ynyl]-6,6-dimethyl-azepane-3,4-diol]	> 100	E (E indicates −30%-−70%)	> 100	–
CC1CN(CC#Cc2cc(N3C4CCC3CN(c3cc(-c5ccccc5O)nnc3N)C4)ccn2)CCC(F)(F)C1 (centres unmarked) [Compound 212, 2-[6-amino-5-[8-[2-[3-(5,5-difluoro-3-methyl-azepan-1-yl)prop-1-ynyl]-4-pyridyl]-3,8-diazabicyclo[3.2.1]octan-3-yl]pyridazin-3-yl]phenol]	< 10	F (F indicates −71%-−120%)	< 10	71 to 120
Nc1nnc(-c2ccccc2O)cc1N1CC2CCC(C1)N2c1ccnc(C#CCN2CCCCC(CO)C2)c1 (centres unmarked) [Compound 214, 2-[6-amino-5-[8-[2-[3-[3-(hydroxymethyl)azepan-1-yl]prop-1-ynyl]-4-pyridyl]-3,8-diazabicyclo[3.2.1]octan-3-yl]pyridazin-3-yl]phenol]	< 10	F (F indicates −71%-−120%)	< 10	30 to 70
Nc1nnc(-c2ccccc2O)cc1N1CC2CCC(C1)N2c1ccnc(C#CCN2CCCC(CO)CC2)c1 (centres unmarked) [Compound 215, 2-[6-amino-5-[8-[2-[3-[4-(hydroxymethyl)azepan-1-yl]prop-1-ynyl]-4-pyridyl]-3,8-diazabicyclo[3.2.1]octan-3-yl]pyridazin-3-yl]phenol]	< 10	F (F indicates −71%-−120%)	10 to 100	71 to 120
Nc1nnc(-c2ccccc2O)cc1N1CC2CCC(C1)N2c1ccnc(C#CCN2CCCCCC2CO)c1 (centres unmarked) [Compound 216, 2-[6-amino-5-[8-[2-[3-[2-(hydroxymethyl)azepan-1-yl]prop-1-ynyl]-4-pyridyl]-3,8-diazabicyclo[3.2.1]octan-3-yl]pyridazin-3-yl]phenol]	< 10	F (F indicates −71%-−120%)	< 10	71 to 120
Nc1nnc(-c2ccccc2O)cc1N1CC2CCC(C1)N2c1ccnc(C#CCN2CC3CC(CO)CC32)c1 (centres unmarked) [Compound 217, 2-[6-amino-5-[8-[2-[3-[3-(hydroxymethyl)-6-azabicyclo[3.2.0]heptan-6-yl]prop-1-ynyl]-4-pyridyl]-3,8-diazabicyclo[3.2.1]octan-3-yl]pyridazin-3-yl]phenol]	10 to 100	E (E indicates −30%-−70%)	10 to 100	30 to 70
Nc1nnc(-c2ccccc2O)cc1N1CC2CCC(C1)N2c1ccnc(C#CCN2CCC3CCC2CC3)c1 [Compound 218, 2-[6-amino-5-[8-[2-[3-(2-azabicyclo[3.2.2]nonan-2-yl)prop-1-ynyl]-4-pyridyl]-3,8-diazabicyclo[3.2.1]octan-3-yl]pyridazin-3-yl]henol]	< 10	F (F indicates −71%-−120%)	< 10	30 to 70
CC1CC(O)CCN(CC#Cc2cc(N3C4CCC3CN(c3cc(-c5ccccc5O)nnc3N)C4)ccn2)C1 (centres unmarked) [Compound 219, 1-[3-[4-[3-[3-amino-6-(2-hydroxyphenyl)pyridazin-4-yl]-3,8-diazabicyclo[3.2.1]octan-8-yl]-2-pyridyl]prop-2-ynyl]-6-methyl-azepan-4-ol]	< 10	F (F indicates −71%-−120%)	< 10	71 to 120

— US11993599B2, “Therapeutic compounds” (Genentech, Inc., priority 2021, dated 2024)
